{"source": "patent US11634488B2", "about": "“Treatment of B cell malignancies using afucosylated pro-apoptotic anti-CD19 antibodies in combination with anti CD20 antibodies or chemotherapeutics” (INTERNATIONAL—DRUG—DEVELOPMENT—BIOTECH, priority 2017, dated 2023)", "tested_on": "Human follicular cell line RL", "assay": "CDX model for FL: RL cells subcutaneously in SCID mice", "format": "in vivo", "details": "RL xenograft in SCID mice", "protocol": "Human follicular cell line RL was subcutaneously injected in SCID mice, with a concentration of 5.10^6 cells per injection (200 μL). Mice were randomized when the tumors reached a mean volume of about 100 mm^3 for the 9 groups (total 45 mice). […] The endpoint was defined by animal ethics as a tumor diameter of >18 mm, significant weight loss or alteration of animal well-being. In order to assess the effectiveness of the compounds on tumorigenesis, tumor volume was measured two times a week. The sizes of the primary tumors were measured using calipers and the tumor volume (TV) was extrapolated to a sphere using the formula TV=4/3 […]×r^3, by calculating the mean radius from the two measurements. The median and standard deviation were also calculated for each group. Median is preferred to mean in order to exclude the extreme values. MAb treatment was administered by intraperitoneal injection twice a week during three weeks at 30, 10 or 1 mg/kg doses. The product was prepared in accordance with the sponsor's guidelines, i.e. diluted in PBS. Mice were sacrificed when the tumors reached a maximum volume of 1600 mm^3. The endpoints were defined by […] as a tumor diameter of >18 mm or weight loss of >10% of body weight, or when the tumors are dangerous for mice (necrosis). Statistical analysis was performed with GraphPad Prism software. GraphPad Prism combined scientific graphing, comprehensive curve fitting, understandable statistics, and data organization. The t-test (two-tailed test) was performed on the tumor volume values (mm^3) measured on the day of sacrifice.", "key": {"[1]": {"details": "Day 55, 1 mg/kg each MAb, percentage of mice"}}, "data": [{"substance": "rituximab", "values": [{"measurement": "mice in complete remission", "setting": "1 mg/kg, day 45", "value": 33, "unit": "%"}, {"measurement": "Complete Remission", "setting": "[1]", "value": 33}, {"measurement": "Tumor progression", "setting": "[1]", "value": 67}]}]}
